Source: ChEMBL document CHEMBL4177744, “Discovery of novel scaffolds for γ-secretase modulators without an arylimidazole moiety” (Bioorg Med Chem, 2018)
Blank lines part the entries; values can stand above or below the compound they belong to.

Assays:
[1] = Intrinsic clearance in CD-1 mouse liver microsomes assessed per mg protein at 0.2 uM by LC-MS/MS analysis; type: ADME, microsome; settings: read-out: CLH
[2] = target: Gamma-secretase; experiment: Modulatory activity against gamma-secretase in human SK-N-BE(2) cells assessed as reduction in amyloid beta 42 production after 6 hrs by sandwich ELISA; type: cell-based
[3] = Brain to plasma partition coefficient, Kp in ddY mouse at 30 mg/kg, ip after 1 hr by LC-MS/MS analysis; type: ADME, organism-based
[4] = Drug uptake in ddY mouse plasma at 30 mg/kg, ip after 1 hr by LC-MS/MS analysis; type: ADME, organism-based
[5] = Drug uptake in ddY mouse plasma at 30 mg/kg, ip after 3 hrs by LC-MS/MS analysis; type: ADME, organism-based
[6] = Drug uptake in ddY mouse brain at 30 mg/kg, ip after 1 hr by LC-MS/MS analysis; type: ADME, organism-based; settings: in vivo
[7] = […], Kp in ddY mouse brain at 30 mg/kg, ip after 3 hrs by LC-MS/MS analysis; type: ADME, organism-based; settings: BLD = below limit of detection
[8] = Brain to plasma partition coefficient, Kp in ddY mouse at 30 mg/kg, po after 3 hrs by LC-MS/MS analysis; type: ADME, organism-based
[9] = Brain to plasma partition coefficient, Kp in ddY mouse at 30 mg/kg, po after 1 hr by LC-MS/MS analysis; type: ADME, organism-based
[10] = Drug uptake in ddY mouse brain at 30 mg/kg, po after 1 hr by LC-MS/MS analysis; type: ADME, organism-based; settings: in vivo
[11] = Drug uptake in ddY mouse brain at 30 mg/kg, po after 3 hrs by LC-MS/MS analysis; type: ADME, organism-based; settings: in vivo
[12] = target: T1, CYP3A4 (Homo sapiens, UniProt P08684); experiment: Inhibition of CYP3A4 in human liver microsomes assessed as residual activity at 5 uM using midazolam as substrate after 20 mins in presence of NADPH by LC-MS/MS analysis relative to control; type: ADME; settings: probe midazolam, read-out: Activity
T1 sequence (P08684 whole entry): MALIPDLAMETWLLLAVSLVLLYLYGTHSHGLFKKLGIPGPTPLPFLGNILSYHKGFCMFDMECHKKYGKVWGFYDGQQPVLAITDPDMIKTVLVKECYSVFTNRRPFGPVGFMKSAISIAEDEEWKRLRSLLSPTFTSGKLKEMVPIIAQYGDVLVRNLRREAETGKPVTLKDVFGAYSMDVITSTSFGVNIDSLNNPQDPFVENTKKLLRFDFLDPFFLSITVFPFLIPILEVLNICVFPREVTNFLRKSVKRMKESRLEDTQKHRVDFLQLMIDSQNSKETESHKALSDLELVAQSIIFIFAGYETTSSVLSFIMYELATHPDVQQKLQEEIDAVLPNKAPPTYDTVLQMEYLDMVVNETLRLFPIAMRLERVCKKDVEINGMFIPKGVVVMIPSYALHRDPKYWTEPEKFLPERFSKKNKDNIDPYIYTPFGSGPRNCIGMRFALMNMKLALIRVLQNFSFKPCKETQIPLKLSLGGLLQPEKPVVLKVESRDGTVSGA

[13] = Drug uptake in ddY mouse plasma at 30 mg/kg, po after 3 hrs by LC-MS/MS analysis; type: ADME, organism-based
[14] = target: T1, CYP3A4; experiment: Inhibition of CYP3A4 in human liver microsomes assessed as residual activity at 5 uM using midazolam as substrate preincubated for 30 mins followed by substrate addition measured after 20 mins in presence of NADPH by LC-MS/MS analysis relative to control; type: ADME; settings: probe midazolam, read-out: Activity
[15] = Drug uptake in ddY mouse plasma at 30 mg/kg, po after 1 hr by LC-MS/MS analysis; type: ADME, organism-based

SMILES: CCCCN1CCC(c2c(C)nc3c(OCc4ccccc4C)cccn23)CC1
microsomal CLint at 0.2 µM [1]: > 1000 µL/min/mg | IC50 [2]: 8.7 µM

SMILES: Cc1ccccc1COc1cccn2c(C3CCN(C)CC3)c(C)nc12
IC50 [2]: 9.8 µM

SMILES: Cc1ccccc1COc1cccn2c(-c3ccncc3)c(C)nc12
IC50 [2]: 7.1 µM

SMILES: Cc1nc2c(OCc3ccccc3)cccn2c1CN(C)CCN(C)C
IC50 [2]: > 50 µM

SMILES: COc1cc(/C=C2\CCCN([C@@H](C)c3ccc(F)cc3)C2=O)ccc1-n1cnc(C)c1
activity at 20 min, 5 µM [12]: 40% | activity at 20 min, 5 µM [14]: 29%

SMILES: CCCCc1ccc(-c2c(C)nc3c(OCc4ccccc4C)cccn23)cc1
microsomal CLint at 0.2 µM [1]: 628 µL/min/mg | IC50 [2]: > 50 µM

SMILES: CCN(C)C(=O)c1ccc(-c2c(C)nc3c(OCc4ccccc4C)cccn23)cc1
IC50 [2]: > 10 µM

More lines, in order of falling IC50 [2], values ahead:

IC50 [2]: 5.8 µM
SMILES: Cc1nc2c(OCc3ccccc3)cccn2c1C1CCN(C2CCCCC2)CC1

IC50 [2]: 2.3 µM
SMILES: CCNC(=O)c1ccc(-c2c(C)nc3c(OCc4ccccc4C)cccn23)cc1

IC50 [2]: 1.8 µM
SMILES: CCOC(=O)c1ccc(-c2c(C)nc3c(OCc4ccccc4C)cccn23)cc1

IC50 [2]: 1.3 µM
SMILES: CCOC(=O)N1CCC(c2c(C)nc3c(OCc4ccccc4C)cccn23)CC1

Kp at 1 h [3]: 1 | concentration at 1 h [4]: 700 nM | concentration at 3 h [5]: 9.4 nM | microsomal CLint at 0.2 µM [1]: > 1000 µL/min/mg | IC50 [2]: 0.69 µM | Drug uptake [6]: 0.71 nmol/g | Kp [7]: Bld
SMILES: CCCC(=O)N1CCC(c2c(C)nc3c(OCc4ccccc4C)cccn23)CC1.Cl

Kp at 3 h [8]: 0.72 | Kp at 1 h [9]: 0.72 | Drug uptake [10]: 1.9 nmol/g | Drug uptake [11]: 0.69 nmol/g | microsomal CLint at 0.2 µM [1]: 611 µL/min/mg | IC50 [2]: 0.39 µM | activity at 20 min, 5 µM [12]: 85% | concentration at 3 h [13]: 960 nM | activity at 20 min, 5 µM [14]: 87% | concentration at 1 h [15]: 2500 nM
SMILES: CCN1Cc2cc(-c3c(C)nc4c(OCc5ccccc5C)cccn34)ccc2C1=O.Cl
